Laboratory results from the NIST ThermoML archive (doi:10.1016/j.jct.2016.06.034).

Assay: mn = molality of the nth substance listed, in mol/kg
Conditions: for electrical conductivity / speed of sound / mass density: 84.5 kPa, Liquid; for electrical conductivity: Alternating current cell with electrodes; for speed of sound: Frequency=3 MHz, Sing-around technique in a fixed-path interferometer; for mass density: Vibrating tube method; for surface tension liquid-gas: platinum plate method

CCCCCCCCCCn1cc[n+](C)c1.[Br-] [1-decyl-3-methylimidazolium bromide] + O
Conditions	electrical conductivity [S/m]	mass density [kg/m3]	speed of sound [m/s]	surface tension liquid-gas [mN/m]
293.15 K, m1 = 0.00228	0.0203	–	–	–
293.15 K, m1 = 0.00309	0.0273	–	–	–
293.15 K, m1 = 0.00382	0.0335	–	–	–
293.15 K, m1 = 0.00535	0.0458	–	–	–
293.15 K, m1 = 0.00813	0.0678	–	–	–
293.15 K, m1 = 0.0095	–	998.589	1484.6	–
293.15 K, m1 = 0.01113	0.0909	–	–	–
293.15 K, m1 = 0.01379	–	998.766	1485.5	–
293.15 K, m1 = 0.01397	0.112	–	–	–
293.15 K, m1 = 0.01652	–	998.876	1486.1	–
293.15 K, m1 = 0.01667	0.132	–	–	–
293.15 K, m1 = 0.01935	0.152	–	–	–
293.15 K, m1 = 0.02179	–	999.09	1487.2	–
293.15 K, m1 = 0.02193	0.17	–	–	–
293.15 K, m1 = 0.02449	0.187	–	–	–
293.15 K, m1 = 0.02615	–	999.268	1488	–
293.15 K, m1 = 0.02695	0.204	–	–	–
293.15 K, m1 = 0.02918	0.219	–	–	–
293.15 K, m1 = 0.03106	–	999.467	1489	–
293.15 K, m1 = 0.0311	0.231	–	–	–
293.15 K, m1 = 0.03299	0.243	–	–	–
293.15 K, m1 = 0.03338	–	999.559	1489.4	–
293.15 K, m1 = 0.03499	0.256	–	–	–
293.15 K, m1 = 0.03691	0.269	–	–	–
293.15 K, m1 = 0.03819	–	999.755	1490.3	–
293.15 K, m1 = 0.03912	0.282	–	–	–
293.15 K, m1 = 0.0406	–	999.853	1490.5	–
293.15 K, m1 = 0.04083	0.292	–	–	–
293.15 K, m1 = 0.0425	0.3	–	–	–
293.15 K, m1 = 0.04332	–	999.954	1490.9	–
293.15 K, m1 = 0.04369	0.305	–	–	–
293.15 K, m1 = 0.04545	0.311	–	–	–
293.15 K, m1 = 0.04614	–	1000.06	1491.1	–
293.15 K, m1 = 0.04751	0.317	–	–	–
293.15 K, m1 = 0.04952	0.323	–	–	–
293.15 K, m1 = 0.05149	0.327	–	–	–
293.15 K, m1 = 0.05344	0.332	–	–	–
293.15 K, m1 = 0.05515	–	1000.37	1491.4	–
293.15 K, m1 = 0.05532	0.336	–	–	–
293.15 K, m1 = 0.058	0.342	–	–	–
293.15 K, m1 = 0.05963	0.345	–	–	–
293.15 K, m1 = 0.06396	–	1000.67	1491.6	–
293.15 K, m1 = 0.07815	–	1001.15	1491.8	–
293.15 K, m1 = 0.122	–	1002.6	1492.4	–
293.15 K, m1 = 0.1726	–	1004.24	1493	–
293.15 K, m1 = 0.2247	–	1005.89	1493.8	–
293.15 K, m1 = 0.2539	–	1006.79	1494.1	–
298.15 K, m1 = 1e-05	0.000165	–	–	–
298.15 K, m1 = 3e-05	0.00031	–	–	–
298.15 K, m1 = 4e-05	0.000454	–	–	–
298.15 K, m1 = 5e-05	0.000592	–	–	–
298.15 K, m1 = 7e-05	0.000739	–	–	–
298.15 K, m1 = 0.0001	0.00103	–	–	–
298.15 K, m1 = 0.00012	0.00132	–	–	–
298.15 K, m1 = 0.00018	0.00193	–	–	–
298.15 K, m1 = 0.00025	0.00268	–	–	–
298.15 K, m1 = 0.0004	0.00418	–	–	–
298.15 K, m1 = 0.0006	0.00622	–	–	–
298.15 K, m1 = 0.00096	0.00987	–	–	–
298.15 K, m1 = 0.00171	0.0172	–	–	–
298.15 K, m1 = 0.00264	0.0265	–	–	–
298.15 K, m1 = 0.00371	0.0368	–	–	–
298.15 K, m1 = 0.00412	–	–	–	54.68
298.15 K, m1 = 0.00504	0.0494	–	–	–
298.15 K, m1 = 0.00703	0.0685	–	–	–
298.15 K, m1 = 0.00741	–	–	–	50.92
298.15 K, m1 = 0.00984	0.0933	–	–	–
298.15 K, m1 = 0.01142	–	–	–	47.08
298.15 K, m1 = 0.01267	0.117	–	–	–
298.15 K, m1 = 0.01525	0.139	–	–	–
298.15 K, m1 = 0.01559	–	–	–	43.86
298.15 K, m1 = 0.01793	0.16	–	–	–
298.15 K, m1 = 0.01865	–	–	–	42.13
298.15 K, m1 = 0.02048	0.181	–	–	–
298.15 K, m1 = 0.023	0.201	–	–	–
298.15 K, m1 = 0.02466	–	–	–	39.8
298.15 K, m1 = 0.02535	0.219	–	–	–
298.15 K, m1 = 0.02772	0.237	–	–	–
298.15 K, m1 = 0.02893	–	–	–	38.51
298.15 K, m1 = 0.02961	0.251	–	–	–
298.15 K, m1 = 0.03171	0.267	–	–	–
298.15 K, m1 = 0.03351	–	–	–	37.65
298.15 K, m1 = 0.03974	–	–	–	37.31
298.15 K, m1 = 0.04641	–	–	–	37.49
298.15 K, m1 = 0.05292	–	–	–	38.51
298.15 K, m1 = 0.05743	–	–	–	38.59
298.15 K, m1 = 0.06462	–	–	–	38.74
298.15 K, m1 = 0.0747	–	–	–	38.93
298.15 K, m1 = 0.0901	–	–	–	38.82
298.15 K, m1 = 0.1219	–	–	–	38.81
298.15 K, m1 = 0.1645	–	–	–	38.91
